Test results taken from patent publication US9006191B2, “Silencing of polo-like kinase expression using interfering RNA” (Protiva Biotherapeutics, Inc., priority 2007, dated 2015).
Entries after “also recorded” stand apart in the source; their conditions may differ.

Assays:
[1] = test system: PLK-1 mRNA; test: PLK-1 mRNA silencing in cell cultures (QuantiGene branched DNA assay); format: cell-based, human; details: 0.12-30 nM SNALP, 24 h
Method: Target mRNA Quantitation: The QuantiGene® branched DNA assay (Panomics, Inc.; Fremont, Calif.) was used to quantify the reduction of target mRNA in cell cultures treated with SNALP. Cell lysates were prepared according to the manufacturer's instructions and used directly for PLK1 mRNA quantification. Relative PLK-1 mRNA levels are expressed relative to the vehicle (PBS) treated control cells. Specific probe sets used for detection of mRNA were designed to target human PLK-1 mRNA (Genbank Accession No. NM_005030). These probe sets are cross reactive with mouse PLK-1.
PLK-1 SNALP (“2:40” SNALP formulation: 2% PEG-cDMA; 40% DLinDMA; 10% DSPC; and 48% cholesterol) were tested for their ability to silence PLK-1 mRNA in HT29 cells. Cells were plated in duplicates at relatively high concentrations (˜10,000 cells/well). QuantiGene® analysis was performed at 24 hours following transfection to detect the level of mRNA down-regulation. A visual score of the transfected cells was obtained at 48 hours following transfection. Cell viability analysis was performed at 72 hours following transfection.
SNALP containing PLK1424 or PLK773 siRNA (“2:40” SNALP formulation: 2% PEG-cDMA; 40% DLinDMA; 10% DSPC; and 48% cholesterol) were tested for their effects on cell viability and silencing of PLK-1 mRNA in HT29 and LS174T human colon cancer cells. Cells were plated in triplicate at ˜10,000 cells/well. SNALP dosages were as follows: 30 nM; 10 nM; 3.3 nM; 1.1 nM; 0.37 nM; and 0.12 nM. Branched DNA mRNA assays were performed 24 hours following transfection. Cell viability assays were performed at 72 hours following transfection. SNALP containing a non-targeting (GFP) siRNA were used as a negative control. […] The effects on cell viability correlated with silencing of the target PLK-1 mRNA.

[2] = test system: LS174T cells; test: Apoptosis/Caspase 3/7 assay in LS174T cells; format: cell-based, human; details: SNALP-formulated siRNA, 24-72 h
Method: This assay is based on the specific enzymatic cleavage of the Caspase 3/7 substrate (Z-DEVD)-2-Rhodamine 110 to a fluorogenic product and is used to quantify the level of apoptosis in cultured cells.
SNALP containing PLK1424 or PLK773 siRNA (“2:40” SNALP formulation: 2% PEG-cDMA; 40% DLinDMA; 10% DSPC; and 48% cholesterol) were further tested for their effects on inducing the apoptosis of LS174T cells. Cells were plated in triplicate at ˜10,000 cells/well. SNALP dosages were as follows: 30 nM; 10 nM; and 3.3 nM. Caspase 3/7 assays were performed at 24, 48, and 72 hours following transfection. SNALP containing a non-targeting (GFP) siRNA were used as a negative control.

[3] = test system: Flt3-ligand derived murine dendritic cells; test: Cytokine induction in murine Flt3L dendritic cell cultures (ELISA); format: cell-based, mouse; details: murine Flt3L DC, 5 μg/ml siRNA in SNALP, 24 h
Method: Cytokine Induction Assays: Flt3-ligand derived murine dendritic cells (Flt3L DC) were generated as described by Gilliet et al. (J. Exp. Med., 195:953-958) using 100 ng/ml murine Flt3-ligand (PeproTech Inc.; Rocky Hill, N.J.) supplemented media. Femurs and tibiae of female Balb/C mice were isolated and rinsed in sterile PBS. The ends of bones were cut and marrow harvested in complete media (RPMI 1640, 10% heat inactivated FBS, 1% penicillin/streptomycin, 2 mM L-glutamine, 1 mM sodium pyruvate, 25 mM HEPES, 50 μM 2-mercaptoethanol). Bone marrow cells were passed through a 70 μm strainer, centrifuged at 1000 rpm for 7 minutes, and resuspended in complete media supplemented with 100 ng/ml murine Flt3L to 2×10^6 cells/ml. 2 mls of cells were seeded in 6-well plates and 1 ml fresh complete media added every two or three days. On day 9 of culture, non-adherent cells were washed in complete media and plated into 96-well plates at concentrations ranging from 0.5 to 2.5×10^5 cells/well. 2′OMe-modified and unmodified (0/0) PLK-1 SNALP were diluted in PBS and added to Flt3L DC cultures at 5 μg/ml siRNA. Cells were incubated for 24 hours at 37° C. before supernatants were assayed for cytokines by ELISA.
Cytokine ELISA: Interferon-α and IL-6 in culture supernatants were quantified using sandwich ELISA kits according to manufacturer's instructions. These were mouse IFN-α (PBL Biomedical; Piscataway, N.J.) and mouse IL-6 (eBioscience; San Diego, Calif.).
In vitro immune stimulation assays. Mouse Flt3L dendritic cell cultures were generated as described previously (65). In brief, bone marrow from Balb/C mice was harvested in complete media (RPMI 1640, 10% FBS, 1% penicillin/streptomycin, 2 mM L-glutamine, 1 mM sodium pyruvate, 25 mM HEPES, 50 uM 2-mercaptoethanol), passed through a 70 micron strainer and resuspended to 2×10^6 cells/mL in complete media supplemented with 100 ng/mL murine Flt3L (Peprotech). Cells were seeded in 6-well plates and 1 mL fresh Flt3L media added every three days. On day 9 of culture, non-adherent cells were plated into 96 well plates at a concentration 2×10^5 cells/well. Formulated siRNA were diluted in PBS and added to the cells for 24 h before supernatants were assayed for cytokines by ELISA.
Cytokine ELISA. All cytokines were quantified using sandwich ELISA kits.

| Substance | PLK-1 mRNA levels ([1]; HT29 cells) | PLK-1 mRNA levels ([1]; LS174T cells) | induction of apoptosis (Caspase 3/7 activity) [2] | cytokine (IL-6, IFN-α) response [3] |
| --- | --- | --- | --- | --- |
| PLK1424: siRNA to human PLK-1, SEQ ID NO:1/2 (UU overhang form 211/212) (chain 1 AGAUCACCCUCCUUAAAUA; chain 2 UAUUUAAGGAGGGUGAUCU; further chemistry not given here) | effective at reducing PLK-1 mRNA levels | effective at reducing PLK-1 mRNA levels | induced a significant amount of apoptosis in LS174T cells at all SNALP doses tested; also recorded: dose-dependent induction of apoptosis 48 h after siRNA transfection | high levels of both IFNα and IL-6 |
| PLK1424-2/A: 2′OMe-modified PLK1424 duplex, SEQ ID NO:214/215 (same SEQ IDs as PLK1424 1/3 of Table 11) (chain 1 AGANCACCCNCCUNAAANAUU; chain 2 UAUUUAANGAGGGUGANCUUU; siRNA; 2'-O-methyl modifications at selected positions, key for n not given here) | – | – | – | completely abrogated |
| PLK773: siRNA to human PLK-1, SEQ ID NO:3/4 (UU overhang form 218/219) (chain 1 AGACCUACCUCCGGAUCAA; chain 2 UUGAUCCGGAGGUAGGUCU; RNA, backbone not given here) | effective at reducing PLK-1 mRNA levels | effective at reducing PLK-1 mRNA levels | induced a significant amount of apoptosis in LS174T cells at all SNALP doses tested | high levels of both IFNα and IL-6 |
